Test results published in publication PMC5841205, “Pharmacological targeting of apelin impairs glioblastoma growth” (Brain, 2017).

Key:
[1] = test system: GSCs (glioblastoma patient-derived cells with stem-like properties); assay: Tumoursphere formation, apelin peptides; type: cell-based, human; details: for number of tumourspheres: 1 μM apelin peptide in mitogen-free medium (MF), GSCs #1, #9, #12 and #13, vs MF, 5 days
Text: Glioblastoma patient-derived cells with stem-like properties (GSCs) were isolated as previously described ([Treps et al., 2016]). Briefly, tumours were dissociated using the MACsDissociator (Miltenyi) and each GSC characterized for their self-renewal capabilities, cell surface antigens, expression of stemness markers, their ability to differentiate, and to initiate tumour formation (Supplementary Table 1). GSCs 1–16 were maintained as spheres in NS medium (DMEM-F12, with N2, G5 and B27 supplements, GlutaMAX™ and antibiotics, Life Technologies). To induce differentiation in GSCs, the three supplements were omitted and 10% foetal bovine serum added to the media.
(§1) To test the tumoursphere formation, GSCs (100 cells/µl) were plated in triplicate in indicated media as previously described ([Harford-Wright et al., 2016]). Cells were manually dissociated each day and a single cell suspension maintained until Day 5. Tumourspheres were counted in five random fields of view, and the mean from the triplicate of each condition calculated from three independent experiments.
(§2) (C) Confocal analysis of NESTIN (green), SOX2 (red) and nuclei (DAPI, blue) in GSC#1 grown in NS, MF, human brain endothelial cell-conditioned medium (EC-CM) or MF+APLN (1 μM). Scale bars = 20 µm. (D) Linear regression plot of in vitro limiting dilution assay (LDA) for GSC#1 in NS, EC-CM, MF, and MF+APLN (1 μM). Data are representative of n = 2. […] (F) Stem cell frequency in GSCs #1, #2, #4, #9 and #12 in response to MF and APLN conditions. […] (H) EC received non-silencing RNA (sic) or siRNA targeting APLN (siAPLN) and APLN knockdown efficiency assessed by RT-PCR and ELISA. […] (K) FACS analysis of the proliferation marker Ki67 in GSCs #4 and #9 in NS and MF+APLN conditions. All panels are representative of n = 3, unless otherwise specified.

GSC #1 = assay: Limiting dilution assay, tideglusib; type: cell-based, human; details: GSC#1, tideglusib 2.5 μM with apelin 1 μM
Method: (§3) Figure 4 Pharmacological inhibition of APLNR impairs the effects of the endothelial secretome on GSCs by inhibition of GSK3β signalling. (A) Molecular structure and primary sequence of the competitive APLNR antagonist MM54. […] (C) The percentage of calcium flux inhibition following MM54 treatment (0.4–10 μM) in the G-protein coupled receptor hits. (D) Tumoursphere per field of view (fov) in response to MM54 (0–4 μM) treatment in GSC#1 maintained in human brain endothelial cell-conditioned medium (EC-CM) and apelin-supplemented mitogen-free MF media (APLN, 1 μM) for 5 days. *P < 0.05 compared to EC-CM DMSO control, ^#P < 0.05 compared to apelin DMSO control. […] (F) Stem cell frequency in apelin supplemented media in response to MM54 (2 μM) in GSCs #1, #4, #9 and #12. *P < 0.05 compared to the vehicle condition. (G) Flow cytometry analysis of the percentage of ALDH positive and negative GSC #1 in response to 2, 10 or 20 μM of MM54 at Day 5. […] (J) Reverse protein phase array (RPPA) from the TCGA database were analysed in low and high APLNR expressing glioblastoma samples. *P < 0.05; **P < 0.01 compared to the low APLNR condition. […] (N) GSC #1 received sic (control) or GSK3B targeting siRNA (siGSK3B) and tumoursphere per field of view was quantified in MF supplemented with purified apelin (APLN, 1 μM). *P < 0.05 compared to the sic MF condition.

GSC#1 [2] = assay: Tumoursphere formation, tideglusib; type: cell-based, human; details: GSC#1, tideglusib 2.5 μM with apelin 1 μM
Method: as §1
Figure 4 Pharmacological inhibition of APLNR impairs the effects of the endothelial secretome on GSCs by inhibition of GSK3β signalling. (A) Molecular structure and primary sequence of the competitive APLNR antagonist MM54. […] (C) The percentage of calcium flux inhibition following MM54 treatment (0.4–10 μM) in the G-protein coupled receptor hits. […] (J) Reverse protein phase array (RPPA) from the TCGA database were analysed in low and high APLNR expressing glioblastoma samples. *P < 0.05; **P < 0.01 compared to the low APLNR condition. […] (N) GSC #1 received sic (control) or GSK3B targeting siRNA (siGSK3B) and tumoursphere per field of view was quantified in MF supplemented with purified apelin (APLN, 1 μM). *P < 0.05 compared to the sic MF condition.

endothelial cells = details: ref Kleinz and Davenport, 2005; cited from earlier work
Text: Moreover, apelin has been implicated in physiological and pathological angiogenesis ([Kaelin et al., 2007]). […] In keeping with this, a recent study proposed apelin as a marker for monitoring tumour vessel normalization and response to anti-angiogenic therapy ([Zhang et al., 2016]; [Zuurbier et al., 2017]).

[3] = test system: GSCs (glioblastoma patient-derived cells with stem-like properties)
Method: as §2

GSC#1 [4] = details: GSC#1, synthetic apelin 1 μM added to MF
Method: as §2

GSCs #4 and #9 = details: GSCs #4 and #9, apelin-supplemented MF
Method: as §2

[5] = test system: U87 glioblastoma cell line; assay: Cell viability (UptiBlue), U87; type: cell-based, human
Method: (§4) Cell viability in response to MM54 was tested using the UptiBlue reagent (Interchim), a fluorometric/colorimetric growth indicator based on the detection of metabolic activity. Briefly, cells were seeded at a density of 2 × 10^3 per well, UptiBlue added at a concentration of 10% v/v and cells maintained at 37°C 5% CO2 until analysis. Absorbance was measured at Day 5 following treatment at 570 and 600 nm on a FLUOStar OPTIMA (BMG Labtech) plate reader, and the percentage of cell viability calculated according to the manufacturer’s instructions.
(§5) Figure 5 Pharmacological inhibition of APLNR by MM54 impairs the in vitro expansion of temozolomide-resistant GSCs. (A) Cell viability following treatment with DMSO, MM54 (2, 20 and 100 μM) or temozolomide (TMZ, 50 μM) was measured using UptiBlue in different cell types for 3 days. […] (B and C) Cell viability following treatment with DMSO or TMZ (100 μM) was measured using UptiBlue in GSCs #1, #4, #9, and #12 for 3 days. […] (D) GSC#1 viability was assessed following combined treatment with MM54 (0.2–20 μM) and TMZ (constant ratios TMZ:MM54 2.5:1, 5:1, and 10:1) in NS and human brain endothelial cell-conditioned medium (EC-CM) conditions. (E and F) Tumoursphere per field of view (fov) and ALDH activity were assessed in response to MM54 (0.2–100 μM) or TMZ (10–100 μM) treatment at Day 5. […]

[6] = test system: LN229 glioblastoma cell line; assay: Cell viability (UptiBlue), LN229; type: cell-based, human; details: TMZ
Method: as §4, §5

[7] = test system: GSCs (glioblastoma patient-derived cells with stem-like properties); assay: Tumoursphere formation, APLNR antagonists and TMZ; type: cell-based, human; details: GSC#1, TMZ 10–100 μM, Day 5
Method: as §1
Figure 4 Pharmacological inhibition of APLNR impairs the effects of the endothelial secretome on GSCs by inhibition of GSK3β signalling. (A) Molecular structure and primary sequence of the competitive APLNR antagonist MM54. […] (J) Reverse protein phase array (RPPA) from the TCGA database were analysed in low and high APLNR expressing glioblastoma samples. *P < 0.05; **P < 0.01 compared to the low APLNR condition. […] (N) GSC #1 received sic (control) or GSK3B targeting siRNA (siGSK3B) and tumoursphere per field of view was quantified in MF supplemented with purified apelin (APLN, 1 μM). *P < 0.05 compared to the sic MF condition.
Figure 5 Pharmacological inhibition of APLNR by MM54 impairs the in vitro expansion of temozolomide-resistant GSCs. (A) Cell viability following treatment with DMSO, MM54 (2, 20 and 100 μM) or temozolomide (TMZ, 50 μM) was measured using UptiBlue in different cell types for 3 days. […]

GSC#1 ALDH activity = assay: ALDH activity (ALDEFLUOR flow cytometry); type: cell-based, human
Method: Analysis of aldehyde dehydrogenase (ALDH) activity was performed using the ALDEFLUOR™ assay kit (Stem Cell Technologies). Briefly, cells were incubated with ALDEFLUOR alone or in combination with an ALDH activity inhibitor (DAEB) at 37°C for 45 min. This flow cytometry-based staining allows monitoring ALDH activity in stem, progenitor and cancer precursor cells. The ALDH activity is considered positive in comparison to cells incubated with DEAB reagent.
as §3, with “5. ALDH activity corresponds to the percentage of cells that contains ALDH activity (positive) or not (negative), normalized to the vehicle condition. *P < 0.05; ***P < 0.001 compared to the vehicle condition.” for “5.”
as §5

GSCs #1, #4, #9, and #12 = assay: Cell viability (UptiBlue), GSCs; type: cell-based, human; details: TMZ 100 μM, GSCs #1, #4 and #9, serum-containing medium, 3 days
Method: as §4, §5

## pyr-apelin-13
[1]; n = 3
  number of tumourspheres: increased the number of tumourspheres compared to mitogen-free media

## O=c1sn(-c2cccc3ccccc23)c(=O)n1Cc1ccccc1 [tideglusib]
GSC #1
  effect on apelin-mediated increase in self-renewal (LDA): apelin was less potent at increasing tumourspheres and self-renewal
GSC#1 [2]
  effect on apelin-mediated increase in tumourspheres: apelin was less potent at increasing tumourspheres and self-renewal

## apelin-13
Endothelial cells
  endothelial cell proliferation and vessel sprouting: induces proliferation and vessel sprouting in endothelial cells
[1]; n = 3
  number of tumourspheres: increased the number of tumourspheres compared to mitogen-free media
[1]; 1 μM, compared among apelin-13, pyr-apelin-13 and apelin-36
  potency at sustaining GSCs (tumourspheres): most potent at sustaining GSCs
[1]; GSC#1, increasing apelin-13 concentrations in MF, n = 3
  tumourspheres, increasing concentrations: potent and sustained increase in tumourspheres from the lowest concentration
[1]; GSC#1 in siAPLN EC-CM plus apelin 1 μM, tumoursphere and LDA
  stem properties of GSCs in APLN-depleted EC-CM: restored this effect
[1]; panel of 16 patient-derived GSCs, apelin-supplemented MF vs MF, n = 3
  ability of GSCs to expand as tumourspheres: significantly increased the ability of GSCs to expand as tumourspheres
[3]; GSC#1, apelin 1 μM in MF vs MF, two weeks, n = 2
  frequency of colony-forming cells: increase in the frequency of colony-forming cells
[3]; GSCs #1, #2, #4, #9 and #12, apelin vs MF
  frequency of stem cells: increased the frequency of stem cells
GSC#1 [4]
  rescue of NESTIN and SOX2 expression and ability to form tumourspheres: rescued by the addition of synthetic apelin
GSCs #4 and #9
  proliferation (Ki67) of GSCs: did not observe any obvious effect

## Cn1nnc2c(C(N)=O)ncn2c1=O [TMZ, Temozolomide]
[5]; TMZ
  viability, U87: significantly reduced the viability
[5]; TMZ 100 μM, serum-containing medium, 3 days
  viability, U87 grown as adherent differentiated cells: reduces the viability
[6]
  viability, LN229: significantly reduced the viability
[7]
  concentrations needed for tumoursphere impairment comparable to MM54: required much higher concentrations to achieve comparable results
GSC#1 ALDH activity; GSC#1, TMZ 10–100 μM, Day 5
  concentrations needed for ALDH impairment comparable to MM54: required much higher concentrations to achieve comparable results
GSC#1 ALDH activity; TMZ alone
  activity of the stem marker ALDH, TMZ alone: does not alter the activity of the stem marker ALDH
GSC#1 ALDH activity; TMZ with MM54 suboptimal dose <2 μM, MM54:TMZ 1:2.5, 1:5, 1:10
  potentiation of MM54 effect on ALDH activity: significantly potentiates the effects of MM54
GSC#1 ALDH activity; TMZ with suboptimal dose of MM54
  percentage of ALDH-positive cells, TMZ combined with suboptimal dose of MM54: profound alterations in the percentage of ALDH-positive cells
GSCs #1, #4, #9, and #12
  viability, GSCs grown as adherent differentiated cells: reduces the viability
